According to patent publication US8715658B2, “Methods for treating conditions mediated by the inflammatory cytokine cascade using GAPDH inhibitors” (The Feinstein Institute for Medical Research, priority 2009, dated 2014):

What was measured:
mice = test: GST-GAPDH challenge in mice, clinical sickness scoring; assay type: in vivo; conditions: FIG. 9
human whole blood = test: Human whole blood assay, plasma TNF by ELISA; assay type: cell-based
Protocol: Human whole blood was obtained from anonymous donors from the Long Island Blood Services. The blood was aliquotted into 48-well plates at 250 μl/well. Aliquots were then treated as indicated at 37° C. for four hours. Samples were centrifuged to separate plasma at 5000 rpm for five minutes at room temperature. TNF levels in the plasma were determined by ELISA as described above.
IgG from α-GAPDH #4418 antiserum was purified using protein A/G sepharose (Pierce). Purified IgG was used to test for the ability of α-GAPDH #4418 to neutralize GAPDH activity. Six conditions were tested: GAPDH (10 μg/ml) alone, GAPDH plus non-specific rabbit IgG (100 ug/ml), GAPDH plus α-GAPDH #4418 (100 ug/ml), α-GAPDH #4418 alone, non-specific rabbit IgG alone. The GAPDH plus α-GAPDH #4418 treatment was pre-incubated at room temperature for 30 minutes prior to applying the mixture to the whole blood.

cultured macrophages = test: GST-GAPDH on cultured macrophages, inflammatory responses; assay type: cell-based; conditions: FIG. 7
Peritoneal macrophages = test: TNF response of peritoneal macrophages from wildtype, TLR2, TLR4 or RAGE deficient mice to GAPDH; assay type: cell-based; conditions: FIG. 3; for TNF release: 50 μg/ml GAPDH
Protocol: Peritoneal macrophages harvested from Wildtype, Toll-like receptor (TLR) 2, TLR4, or Receptor for Advanced Glycation Endproducts (RAGE) deficient mice were resuspended in RPMI1640 medium (Gibco) supplemented with 10% FBS and 2 mM L-glutamine, and 100 μg/ml penicillin and streptomycin, and plated at 1×10^6 cells/well into 24-well Primaria tissue culture plates (Falcon). Cultures were maintained for 24 h at 37° C. under 5% CO2. 30 minutes prior to experimentation, culture medium was replaced by serum free Opti-MEM I medium, and all treatments were conducted in serum free Opti-MEM I medium as described.
RAW264.7 cells at approximately 70% confluence were kept in serum-free Opti-MEM I for 20 minutes prior to treatments. Cells were challenged with a concentration range of purified recombinant GAPDH (produced on site) to determine concentration-dependent responsiveness of inflammatory mediator production. The concentration range consisted of seven concentrations of GAPDH in a five-fold dilution series (50 μg/ml, 10 μg/ml, 2 μg/ml, 0.4 μg/ml, 0.08 μg/ml, 0.016 μg/ml, 0 μg/ml). Cells were incubated at 37° C. and 5% CO2 for 4 hours (TNF). After treatment, the media was harvested and transferred to tubes, and M-cell lysis reagent was applied to the cells. […] The media samples were applied to Enzyme-Linked ImmunoSorbent Assays (ELISA) directed against mouse-TNF (all ELISA reagents were obtained from R+D systems). These ELISA plates were set up and run according to the manufacturer's recommendations. Briefly, samples were incubated overnight in the ELISA plate on a rocker at 4° C. Plates were washed 3× with phosphate-buffered saline supplemented with 0.05% TWEEN-20, and detection antibody diluted at 1:2000 in 1% bovine serum albumin (BSA) was applied to the plates for 2 hours. The plates were washed again as above, and strepavidin-HRP diluted at 1:2000 in 1% BSA was applied to the plates for 15 minutes. The plates were washed again as above, then developed by applying substrate reagent to each well. Reactions were stopped by adding 2M H2SO4 when the standard curve had become obvious, typically 8 to 10 minutes.

IκBα = test: RAW264.7 cells challenged with GAPDH or LPS, IκBα degradation (NF-κB pathway) by Western blot; assay type: cell-based, murine; conditions: 50 μg/ml GAPDH or 20 ng/ml LPS, time-course 0-180 min, FIG. 4
Protocol: (§1) RAW264.7 cells at approximately 70% confluence were kept in serum-free Opti-MEM I for 20 minutes prior to treatments. Cells were challenged with either GAPDH or LPS in a time-course with […] time points (180 min, 120 min, 60 min, 30 min, 15 min, and 0 min). The GAPDH treatment consisted of purified GAPDH diluted to 50 μg/ml in Opti-MEM I. The LPS treatment consisted of LPS (sonicated approximately 30 minutes before use) diluted to 20 ng/ml into Opti-MEM I. Treatments used for time-course experiments were incubated in a 37° C. water bath to maintain culture temperature between time points and sonicated for five minutes before use. […] Bound IκBα antibody was detected using a 1:2000 dilution of HRP-conjugated anti-mouse IgG in 2.5% milk; bound JNK antibody was detected using a 1:2000 dilution of HRP-conjugated anti-rabbit IgG in 2.5% milk. […]
(§2) RAW264.7 macrophage-like cells were challenged with either 50 μg/ml GAPDH or 20 ng/ml LPS in a time-course consisting of six time points ranging from 180 min to 0 min. […] Protein assays were conducted on cell lysates in order to standardize the quantity of protein loaded into each well of SDSPAGE gels for separation. […]

RAW264.7 cells = RAW264.7 cells challenged with GAPDH for cytokine (TNF) elicitation, ELISA; assay type: cell-based, murine; conditions: 50 μg/ml GAPDH, 4 hours, FIG. 2
Protocol: Murine macrophage-like RAW264.7 cells were obtained from the American Type Tissue collection (ATTC). The RAW264.7 cells were cultured in Dulbecco's Modified Essential Medium (DMEM) (Gibco) supplemented with 1% heat-inactivated fetal bovine serum (FBS) (BioWhittaker), and 2 mM L-glutamine, and 100 μg/ml penicillin and streptomycin (all from Sigma). Raw264.7 cultures were incubated at 37° C. under 5% CO2. The cells were serum-deprived in 1% FBS medium for the purpose of slowing the cell cycle to synchronize the cell population. Serum deprivation of the cells also limits available growth factors, minimizing the level of intracellular signaling in pathways that lead to the activation of mitogen-activated protein (MAP) kinases. It is interesting to note that immune challenges such as bacterial endotoxin (LPS) also activate MAP kinases to generate inflammatory responses, and thus high levels of FBS would interfere with the detection of MAP kinase signals that are elicited by the specific immune challenges that this study investigates. RAW264.7 cells were used at approximately 70% confluence, and all treatments were carried out in serum-free Opti-MEM I medium.
RAW264.7 cells at approximately 70% confluence were kept in serum-free Opti-MEM I for 20 minutes prior to treatments. […]

JNK = test: RAW264.7 cells challenged with GAPDH or LPS, JNK activation by Western blot; assay type: cell-based, murine; conditions: 50 μg/ml GAPDH or 20 ng/ml LPS
Protocol: as §1, §2

Substance | sickness by clinical scoring parameters (piloerection, closed eyes, diarrhea, tremoring, activity, relative temperature) (mice) | inflammatory cytokine response from human blood (human whole blood; FIG. 8) | interaction of inflammatory response with LPS (human whole blood; human blood, FIG. 8) | inflammatory responses from cultured macrophages (cultured macrophages) | TNF release (Peritoneal macrophages; RAGE deficient macrophages) | TNF release (Peritoneal macrophages; TLR2 deficient macrophages) [pg TNF/mg cell protein] | TNF response (Peritoneal macrophages; TLR4 deficient macrophages) | TNF release (Peritoneal macrophages; wild type macrophages) | plasma TNF levels (human whole blood; 10 μg/ml challenge, four hours, human whole blood, FIG. 5) | basal level of IκBα (degradation) (IκBα) | TNF release (RAW264.7 cells) | increase in activated JNK levels (JNK; 30 minutes after challenge) | increase in activated JNK levels (JNK; 60 minutes after challenge)
GST-GAPDH: purified recombinant GST-GAPDH, a stable tetramer | cause sickness | elicit inflammatory cytokine response | synergistic with LPS | elicits inflammatory responses | – | – | – | – | – | – | – | – | –
GAPDH: purified recombinant human GAPDH (produced on site), tested as candidate inflammatory cytokine | – | – | – | – | approximately 4500 pg TNF/mg cell protein | ~5000 | did not mount a significant response | approximately 6000 pg TNF/mg cellular protein | approximately 450 pg/ml | decreased dramatically and was nearly undetectable by 30 minutes post treatment | approximately 2250 pg/mg of cellular protein | approximately eight-fold | approximately fifteen-fold
